{"source": "ChEMBL document CHEMBL3507680", "about": "“University of Dundee, Gates Library screen for HepG2 cell viability”", "data": [{"test": "Human HepG2 cell viability assay in 384 well format", "assay_type": "toxicity, cell-based", "parameters": "dose 125 nL, time 70.5 hour; concentration not given beside the values", "settings": "HepG2 cells, read-out: Inhibition", "units": {"cytotoxicity at 70.5 h": "%"}, "values": [{"smiles": "CCOC(=O)N(C)C1CCN(Cc2ccsc2)CC1", "cytotoxicity at 70.5 h": 19.3}, {"smiles": "Cc1ccsc1C(=O)N(C)Cc1ccncc1", "cytotoxicity at 70.5 h": -7.89}, {"smiles": "Cc1ccc2nc(C)c(C)c(C(=O)N[C@H]3COC[C@@H]3N3CCCC3)c2c1", "cytotoxicity at 70.5 h": -3.96}, {"smiles": "Cn1cc(CN2CCCC23CCN(c2nc4ccccc4s2)CC3)cn1", "cytotoxicity at 70.5 h": -4.41}, {"smiles": "CC(C)N1CC(n2ccnc2-c2nccn2C)CC1=O", "note": "(stereo unspecified)", "cytotoxicity at 70.5 h": -7.49}, {"smiles": "Cc1ccc(C2CCCN(C(=O)c3cnn(C)c3)C2)nc1", "note": "(stereo unspecified)", "cytotoxicity at 70.5 h": 24.3}, {"smiles": "CCOc1ccc(NC(=O)NCCCN(C)S(C)(=O)=O)cc1C", "cytotoxicity at 70.5 h": -15.1}, {"smiles": "CS(=O)(=O)c1ccc(OCCNCc2ccc(F)cc2)cc1", "cytotoxicity at 70.5 h": -1.74}, {"smiles": "Cc1nnc(NC(=O)NCc2cc(F)cc(F)c2)s1", "cytotoxicity at 70.5 h": -14.2}, {"smiles": "CC(C)COC(C)C(=O)NCc1ccccc1Cn1ccnc1", "note": "(stereo unspecified)", "cytotoxicity at 70.5 h": -7}, {"smiles": "c1csc(-c2nc(CN3CCCC3Cn3cccn3)co2)c1", "note": "(stereo unspecified)", "cytotoxicity at 70.5 h": -75.5}, {"smiles": "CC(SCC(=O)NCCC#N)c1ccc(Cl)cc1", "note": "(stereo unspecified)", "cytotoxicity at 70.5 h": -18.4}, {"smiles": "O[C@@]1(CN2CCN(Cc3ccncc3)CC2)CCCN2CCCC[C@@H]21", "cytotoxicity at 70.5 h": -9.72}, {"smiles": "O=C(NC1CC1)[C@H]1C[C@H]2OCC[C@H]2N(CC2CC2)C1", "cytotoxicity at 70.5 h": 13.9}, {"smiles": "CC(C)CCc1cc(C(=O)O)nc2[nH]c(=O)[nH]c(=O)c12", "cytotoxicity at 70.5 h": -15.5}, {"smiles": "CCc1oc2ccc(NS(C)(=O)=O)cc2c1C(=O)OC", "cytotoxicity at 70.5 h": 0.398}, {"smiles": "C[C@@H]1CN(C(=O)C2(Cn3cccn3)CC2)CC[C@@]1(O)C1CCOCC1", "cytotoxicity at 70.5 h": -0.0584}, {"smiles": "O=C(c1ccco1)N1CCC2(CCC(=O)N2Cc2ccncc2)CC1", "cytotoxicity at 70.5 h": -2.64}, {"smiles": "CCOc1ccc(C#N)cc1NC(=O)N1CCOC(C(N)=O)C1", "note": "(stereo unspecified)", "cytotoxicity at 70.5 h": 23}, {"smiles": "O=C(CCc1cccc(Cl)c1Cl)N1CCOCC1c1ncon1", "note": "(stereo unspecified)", "cytotoxicity at 70.5 h": -1.88}, {"smiles": "CC(C)c1nn(C)c(Cl)c1CNCCn1cccn1", "cytotoxicity at 70.5 h": 8.25}, {"smiles": "O=C(CCc1ccc(OC(F)(F)F)cc1)N1CCCS1(=O)=O", "cytotoxicity at 70.5 h": -3.82}, {"smiles": "O=C(NCC1CC1)[C@H]1CC[C@@H]2[C@@H](CCN2Cc2nccs2)O1", "cytotoxicity at 70.5 h": 1.44}, {"smiles": "Cc1cc(C(=O)NCc2c(C)nn(C)c2C)nc(N2CCCC2)n1", "cytotoxicity at 70.5 h": -3.65}, {"smiles": "Cc1cn2c(=O)c(-c3ccnc(N4CCC[C@@H]4CO)n3)cnc2s1", "cytotoxicity at 70.5 h": -3.36}, {"smiles": "COCCNC(=O)N1CCN(c2cc(F)ccc2F)CC1", "cytotoxicity at 70.5 h": -10.1}, {"smiles": "Cc1cc(C)n(CC(=O)N2Cc3cnc(C(C)(C)C)nc3C2)n1", "cytotoxicity at 70.5 h": -4.01}, {"smiles": "Cc1cc(C(=O)NCC2Cn3nnc(C)c3CO2)no1", "note": "(stereo unspecified)", "cytotoxicity at 70.5 h": -7.19}, {"smiles": "Cc1nnc(CN(C)CC(=O)N2CCCC(C)CC2)n1C", "note": "(stereo unspecified)", "cytotoxicity at 70.5 h": -8.63}, {"smiles": "Cc1ccsc1C(=O)Nc1ccc(N2CCC(O)CC2)c(C#N)c1", "cytotoxicity at 70.5 h": -0.649}, {"smiles": "CCCC(C(=O)NCCc1nc(C)cs1)N(C)C", "note": "(stereo unspecified)", "cytotoxicity at 70.5 h": 2.88}, {"smiles": "CN(C)CCO[C@H]1CN(Cc2ccoc2)[C@@H]2COC[C@H]12", "cytotoxicity at 70.5 h": 6.76}, {"smiles": "Cc1ccc(NC(=O)c2ncc(C(N)=O)cc2Cl)cc1F", "cytotoxicity at 70.5 h": -87.6}, {"smiles": "CCOc1ccc(S(=O)(=O)NCCCc2ccc(N(C)C)cc2)cc1C", "cytotoxicity at 70.5 h": -1.63}, {"smiles": "CCN1CCN(Cc2ccnc(-c3cccnc3)n2)CC1", "cytotoxicity at 70.5 h": -2.52}, {"smiles": "NC(=O)C1CCN(C(=O)c2cccc(CN3CCOCC3)c2)CC1", "cytotoxicity at 70.5 h": 8.77}, {"smiles": "O=C(c1cncc(Br)c1)N1CCC(O)(Cn2ccc3ccncc32)CC1", "cytotoxicity at 70.5 h": -13.2}, {"smiles": "CC(C)C(=O)N1CCC2(CCCN(CCOc3ccccc3)C2)C1", "note": "(stereo unspecified)", "cytotoxicity at 70.5 h": -8.26}, {"smiles": "CN(C(=O)c1ccccc1Cl)C1CCN(c2ccccn2)CC1", "cytotoxicity at 70.5 h": -3.26}, {"smiles": "O=C(c1cnn(-c2ccccc2)c1)N1CCN(c2cnccn2)CC1", "cytotoxicity at 70.5 h": -15.3}, {"smiles": "Cc1ccc(F)c(C(=O)Nc2cccc(CCN3CCCC3)c2)c1", "cytotoxicity at 70.5 h": -1.18}, {"smiles": "Cc1cc(C)n(C2CCCN(C(=O)CCNc3ncccn3)C2)n1", "note": "(stereo unspecified)", "cytotoxicity at 70.5 h": -2.87}, {"smiles": "O=C1NCC(C(=O)Nc2ncc(Cc3ccccc3F)s2)N1", "note": "(stereo unspecified)", "cytotoxicity at 70.5 h": 3.26}, {"smiles": "O=C(Cc1ccc(Cl)cc1)N[C@@H]1CCC[C@@H](O)[C@@H]1O", "cytotoxicity at 70.5 h": -0.327}, {"smiles": "O=C(NCC1CC1)C1CCC2(CCN(C(=O)c3ccoc3)CC2)O1", "note": "(stereo unspecified)", "cytotoxicity at 70.5 h": -20}, {"smiles": "Cc1cc(C(=O)N2CCC(c3nnc(Cn4ccnc4)n3C)CC2)cs1", "cytotoxicity at 70.5 h": -9.51}, {"smiles": "CN(CC1CCCN(S(C)(=O)=O)C1)c1cnn(C)c1", "note": "(stereo unspecified)", "cytotoxicity at 70.5 h": 18.9}, {"smiles": "CCS(=O)(=O)N1CCc2nc(C3CCN(C(=O)C4CC4)C3)nc(O)c2C1", "note": "(stereo unspecified)", "cytotoxicity at 70.5 h": -1.94}, {"smiles": "O=C(NCCCN1CCOCC1)c1cc(-c2ccco2)[nH]n1", "cytotoxicity at 70.5 h": -11.6}, {"smiles": "O=C(CNc1cc(F)ccc1OCC1CCCO1)N1CCOCC1", "note": "(stereo unspecified)", "cytotoxicity at 70.5 h": -0.218}, {"smiles": "c1ccc2c(c1)CC(CNCc1ccncc1)(N1CCCCC1)C2", "cytotoxicity at 70.5 h": -4.17}, {"smiles": "Cc1noc(C)c1CC(=O)OCC(=O)N1CCc2sccc2C1", "cytotoxicity at 70.5 h": 7.95}, {"smiles": "CC(=O)Nc1cccc(C(=O)N2CCc3c(nc(N(C)C)[nH]c3=O)C2)c1", "cytotoxicity at 70.5 h": 16.1}, {"smiles": "O=C(NC1CCC1)C1=NOC2(CCN(Cc3ccccc3)C2)C1", "note": "(stereo unspecified)", "cytotoxicity at 70.5 h": -10.6}, {"smiles": "Cc1n[nH]c(C)c1-c1cc(-c2cc[nH]c2)nc(N)c1C#N", "cytotoxicity at 70.5 h": -12.3}, {"smiles": "Cc1ccc(NC(=O)CSCc2cccnc2)nc1", "cytotoxicity at 70.5 h": -1.37}, {"smiles": "Cc1occc1C(=O)N1CCOCC2(CCN(Cc3nccs3)C2)C1", "note": "(stereo unspecified)", "cytotoxicity at 70.5 h": -6.13}, {"smiles": "CCN1CC(C(=O)NC(C)(C)CNC(=O)OC(C)(C)C)CC1=O", "note": "(stereo unspecified)", "cytotoxicity at 70.5 h": -8.18}, {"smiles": "CC(NC(=O)c1cn(CCC2CCCCC2)nn1)c1cnn(C)c1", "note": "(stereo unspecified)", "cytotoxicity at 70.5 h": 20.4}, {"smiles": "COc1cccc(C(NCc2ccc(SC)cc2)c2nccn2C)c1", "note": "(stereo unspecified)", "cytotoxicity at 70.5 h": 3.42}, {"smiles": "COCCNC(=O)c1cc(S(=O)(=O)N2CCCCC2)cs1", "cytotoxicity at 70.5 h": -13.8}, {"smiles": "O=C(CN1CCCC1COc1ccccc1)NCc1ccccn1", "note": "(stereo unspecified)", "cytotoxicity at 70.5 h": -10.9}, {"smiles": "CCCc1cc(N2CCC(NCCc3ccc(O)cc3)CC2)nc(C)n1", "cytotoxicity at 70.5 h": -4.92}, {"smiles": "Cc1cccc(N2Cc3nc(N4CCC(C)CC4)ncc3C2=O)c1", "cytotoxicity at 70.5 h": -5.12}, {"smiles": "COc1ccccc1C(=O)NC(c1ccccn1)[C@H]1CC[C@H](CN)CC1", "note": "(stereo partly specified)", "cytotoxicity at 70.5 h": -4.28}, {"smiles": "N#Cc1cn(C2CC2)c(=O)n(CC(O)c2ccccc2F)c1=O", "note": "(stereo unspecified)", "cytotoxicity at 70.5 h": -17}, {"smiles": "O=C(c1cc[nH]n1)N1CCc2cc(Br)sc2C1", "cytotoxicity at 70.5 h": 15.1}, {"smiles": "CNC(=O)[C@@H]1C[C@@H](n2cc(-c3ccc(Cl)cc3)nn2)CN1", "cytotoxicity at 70.5 h": 13.9}, {"smiles": "Cn1ccc(C(=O)N2CCCC(Cc3cccc4cccnc34)C2)n1", "note": "(stereo unspecified)", "cytotoxicity at 70.5 h": 11.6}, {"smiles": "O=S1(=O)COCCN1Cc1ccc(F)c(F)c1", "cytotoxicity at 70.5 h": -7.08}, {"smiles": "CCNC(=O)O[C@H]1COCCN(c2nc3ccccc3s2)C1", "cytotoxicity at 70.5 h": -2.95}, {"smiles": "CCn1ncc2c1C(COCC1CC1)N(Cc1nccs1)CC2", "note": "(stereo unspecified)", "cytotoxicity at 70.5 h": -0.956}, {"smiles": "Cc1ccc(C2CCCN2CC(=O)N(CCC#N)c2ccccc2)cc1", "note": "(stereo unspecified)", "cytotoxicity at 70.5 h": -7.81}, {"smiles": "Cc1nc(CN2CC[C@H]3[C@@H]2CCC(=O)N3c2cnn(C)c2)cs1", "cytotoxicity at 70.5 h": 13.5}, {"smiles": "C=C(C)CN(CC)Cc1nc(C2CC2)no1", "cytotoxicity at 70.5 h": -5.54}, {"smiles": "CC(NC(=O)NCc1ccccn1)c1cccs1", "note": "(stereo unspecified)", "cytotoxicity at 70.5 h": -13.9}, {"smiles": "CCc1nnc2n1CCN(C(=O)c1ccc(C(F)(F)F)nc1C)C2", "cytotoxicity at 70.5 h": -15.4}, {"smiles": "CN1CCCn2c(nc(CNC(=O)c3nccn3C)cc2=O)C1", "cytotoxicity at 70.5 h": -1.89}, {"smiles": "CN(C)c1ccc(C(=O)NCC2(c3ccccc3)CCOCC2)cc1", "cytotoxicity at 70.5 h": -10.7}, {"smiles": "O=C(NC1CC1)C1CCCN(c2cccc(C(F)(F)F)n2)C1", "note": "(stereo unspecified)", "cytotoxicity at 70.5 h": -5.01}, {"smiles": "O=C(COc1ccccc1)N1C[C@@H](O)[C@H](N2CCCC2)C1", "cytotoxicity at 70.5 h": -12.1}]}]}
